This passage reports Activity and IC50 results from ChEMBL document CHEMBL5236596, “Discovery and Optimization of N-Acyl-6-sulfonamide-tetrahydroquinoline Derivatives as Novel Non-Steroidal Selective Glucocorticoid Receptor Modulators” (J Med Chem, 2022).

One data set relates to NIH3T3. Kind of data set: Cytotoxicity against mouse 3T3 cells assessed as inhibition of cell growth. It is filed as toxicity, cell-based.
For a further data set, the system named is GES1. The data set is described as follows: Cytotoxicity against human GES1 cells assessed as inhibition of cell growth. Type of data set: toxicity, cell-based.
Data set [1] can be described thus: Cytotoxicity against human Chang liver cells assessed as inhibition of cell growth. Type of data set: toxicity, cell-based.
Data set [2] concerns the target T1, Glucocorticoid receptor (Homo sapiens, UniProt P04150).
T1 sequence (P04150 whole entry): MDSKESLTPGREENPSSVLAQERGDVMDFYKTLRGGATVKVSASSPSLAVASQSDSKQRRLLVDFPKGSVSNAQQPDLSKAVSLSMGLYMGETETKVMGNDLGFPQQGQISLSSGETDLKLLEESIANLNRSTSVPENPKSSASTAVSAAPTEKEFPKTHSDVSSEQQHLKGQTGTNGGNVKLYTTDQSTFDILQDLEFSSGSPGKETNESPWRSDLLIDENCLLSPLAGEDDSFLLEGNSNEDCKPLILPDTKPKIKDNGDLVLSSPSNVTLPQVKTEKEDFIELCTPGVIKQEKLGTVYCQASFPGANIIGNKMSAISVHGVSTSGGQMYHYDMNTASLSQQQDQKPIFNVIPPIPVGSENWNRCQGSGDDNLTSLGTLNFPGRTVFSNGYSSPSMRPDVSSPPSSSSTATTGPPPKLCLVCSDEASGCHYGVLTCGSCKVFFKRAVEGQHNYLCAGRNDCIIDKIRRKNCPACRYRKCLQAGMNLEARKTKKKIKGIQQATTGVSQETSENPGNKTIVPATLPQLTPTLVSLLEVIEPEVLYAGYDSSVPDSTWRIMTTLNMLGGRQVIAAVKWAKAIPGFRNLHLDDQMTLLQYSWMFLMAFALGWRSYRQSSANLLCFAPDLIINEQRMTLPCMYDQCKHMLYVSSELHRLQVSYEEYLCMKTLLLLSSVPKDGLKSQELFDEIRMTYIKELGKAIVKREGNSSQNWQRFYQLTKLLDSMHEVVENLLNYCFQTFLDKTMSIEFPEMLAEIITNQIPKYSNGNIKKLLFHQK
The data set is described as follows: Modulation of glucocorticoid receptor (unknown origin) transfected in human HeLa cells assessed as transrepression by measuring inhibition of PMA-induced AP-1 signalling incubated for 18 hrs by dual-luciferase reporter based assay. Type of data set: cell-based. On the technique in general: Reporter assays use an easily measured gene product as a stand-in for the process of interest.

The target in data set [3] is T1, Glucocorticoid receptor. The data set is described as follows: Antagonist activity at glucocorticoid receptor (unknown origin) transfected in human HeLa cells assessed as inhibition of dexamethasone-induced transactivation of receptor incubated for 18 hrs by firefly luciferase assay. Type of data set: cell-based.
Data set [4] has as its target T1, Glucocorticoid receptor. The data set is described as follows: Modulation of glucocorticoid receptor (unknown origin) transfected in human HeLa cells assessed as transrepression by measuring inhibition of TNF-alpha induced NF-kappaB signalling incubated for 18 hrs by dual-luciferase reporter based assay. It is filed as cell-based.
Data set [5] concerns the target T1, Glucocorticoid receptor. Kind of data set: Binding affinity to glucocorticoid receptor (unknown origin) by Lanthascreen TR-FRET competition binding assay. For orientation: Time-resolved FRET reads energy transfer from a long-lived donor to a nearby acceptor.
The nature of data set [6]: Inhibition of LPS-induced TNF-alpha secretion in mouse primary peritoneal macrophages by ELISA. Type of data set: functional, cell-based. The conditions noted are these: Peritoneal macrophage. (An ELISA detects its analyte on a solid surface through an enzyme-linked reagent.)
Data set [7] can be described thus: Inhibition of LPS-induced IL-6 secretion in mouse primary peritoneal macrophages by ELISA. The conditions noted are these: Peritoneal macrophage. Type of data set: functional, cell-based.

Structures are written as SMILES.

Consider `CC(C)[C@H](NC(=O)C(C)(F)F)[C@H](Oc1ccc2c(cnn2-c2ccc(=O)n(C)c2)c1)c1ccccc1` [MIZACORAT], for which the Activity result (in the data set on NIH3T3; in the data set on GES1; in [1]) was “Toxic” throughout.
With `O=C(c1ccco1)N1CCCc2cc(NS(=O)(=O)CCc3ccccc3)ccc21`, the IC50 at Glucocorticoid receptor [2] was 6.53 µM; at Glucocorticoid receptor [3], > 10 µM; at Glucocorticoid receptor [4] it was > 10 µM; at Glucocorticoid receptor [5] it was > 10 µM.
With `COc1cc(C)c(Cl)cc1S(=O)(=O)Nc1ccc2c(c1)CCCN2C(=O)c1ccc(F)cc1`, the IC50 at Glucocorticoid receptor [2] turned out to be 2.73 µM; at Glucocorticoid receptor [3], 14.2 µM; on Glucocorticoid receptor [4], 0.35 µM; on Glucocorticoid receptor [5], 6.96 µM.
For `COc1cc(C)c(Cl)cc1S(=O)(=O)Nc1ccc2c(c1)CCCN2C(=O)N(C)C` the same measures were 0.53 µM, 27.3 µM, 0.05 µM and 2.75 µM.
In the case of `COc1cc(C)c(Cl)cc1S(=O)(=O)Nc1ccc2c(c1)CCCN2C(=O)c1ccc2ccccc2c1`, the IC50 on Glucocorticoid receptor [2] came to 1.95 µM; at Glucocorticoid receptor [4] it was 0.33 µM; at Glucocorticoid receptor [5] it was 3.28 µM.
For `COc1cc(C)c(C)cc1S(=O)(=O)Nc1ccc2c(c1)CCCN2C(=O)c1ccccc1` the same measures were 1.14 µM, 0.89 µM and > 50 µM.
For `COc1ccc(C(=O)N2CCCc3cc(NS(=O)(=O)c4cc(Cl)c(C)cc4OC)ccc32)cc1` the same measures were 1.42 µM, 0.067 µM and > 50 µM.
For `COc1cc(C)c(Cl)cc1S(=O)(=O)Nc1ccc2c(c1)CCCN2C(=O)c1ccco1` the same measures were > 10 µM, 0.05 µM and 5.02 µM.
Take `CC(C)(C)c1ccc(S(=O)(=O)Nc2ccc3c(c2)CCCN3C(=O)c2ccco2)cc1`: the IC50 was found to be 1.15 µM at Glucocorticoid receptor [2], 0.18 µM at Glucocorticoid receptor [4] and 0.47 µM at Glucocorticoid receptor [5].
As to `COc1ccc(S(=O)(=O)N(c2ccc3c(c2)CCCN3C(=O)c2ccco2)S(=O)(=O)c2ccc(OC)cc2)cc1`, the IC50 was 1.05 µM at Glucocorticoid receptor [2], 0.28 µM on Glucocorticoid receptor [4] and > 50 µM on Glucocorticoid receptor [5].
For the molecule `COc1ccc(S(=O)(=O)Nc2ccc3c(c2)CCCN3C(=O)c2ccco2)cc1`, the IC50 was 5.62 µM on Glucocorticoid receptor [2], 1.83 µM at Glucocorticoid receptor [4] and > 50 µM at Glucocorticoid receptor [5].
On to `COc1ccc(C(=O)/C=C/c2cccc(OC)c2OC)cc1`, for which the IC50 in data set [6] and in data set [7] was 10 µM each time.
With `COc1cc(C)c(Cl)cc1S(=O)(=O)Nc1ccc2c(c1)CCCN2C(C)=O`, the IC50 was 2.71 µM on Glucocorticoid receptor [2], 12.1 µM at Glucocorticoid receptor [3], 0.47 µM on Glucocorticoid receptor [4] and 3.19 µM at Glucocorticoid receptor [5].
Turning to `COc1ccccc1S(=O)(=O)Nc1ccc2c(c1)CCCN2C(=O)c1ccco1`, the IC50 at Glucocorticoid receptor [2] is 4.91 µM; on Glucocorticoid receptor [4] it was 0.9 µM; on Glucocorticoid receptor [5], > 10 µM.
For `CCCCc1ccc(C(=O)N2CCCc3cc(NS(=O)(=O)c4cc(Cl)c(C)cc4OC)ccc32)cc1` the same measures were > 10 µM, 0.1 µM and > 50 µM.
As for `O=C(c1ccco1)N1CCCc2cc(N(S(=O)(=O)c3ccc(-c4ccccc4)cc3)S(=O)(=O)c3ccc(-c4ccccc4)cc3)ccc21`, the 50% inhibitory concentration (IC50) at Glucocorticoid receptor [2] was determined as 4.15 µM; on Glucocorticoid receptor [4], 0.07 µM; at Glucocorticoid receptor [5], 2.29 µM.
Take `O=C(c1ccco1)N1CCCc2cc(NS(=O)(=O)c3ccc(Cl)c(C(F)(F)F)c3)ccc21`: the figures for the IC50 on Glucocorticoid receptor [2], at Glucocorticoid receptor [4] and at Glucocorticoid receptor [5] were 4.12 µM, 2.45 µM and 19.7 µM, respectively.
On to `COc1cc(C)c(Cl)cc1S(=O)(=O)Nc1ccc2c(c1)N(C(=O)c1ccco1)CCC2`, for which the IC50 on Glucocorticoid receptor [2] was 0.68 µM; on Glucocorticoid receptor [4] it was 0.06 µM; on Glucocorticoid receptor [5] it was > 50 µM.
Regarding `COc1ccc(C)c(C)c1S(=O)(=O)Nc1ccc2c(c1)CCCN2C(=O)c1ccco1`, the figures for the IC50 on Glucocorticoid receptor [2], at Glucocorticoid receptor [4] and at Glucocorticoid receptor [5] were 0.99 µM, 0.1 µM and 1.35 µM, respectively.

As a reminder, the IC50 is the midpoint of a concentration-inhibition curve.
